Patent US20240216317A1, “COMPOSITION FOR PREVENTING, AMELIORATING OR TREATING INFLAMMATORY BOWEL DISEASE COMPRISING COMPOUND ISOLATED FROM ISODON EXCISUS AS EFFECTIVE COMPONENT” (HEALINNOLS INC., priority 2022, published 2024)

Tested on: IL-1β
Assay: IL-1β mRNA expression (qPCR) in zebra fish animal model of DSS-induced inflammatory bowel disease
Format: in vivo, zebra fish (Danio rerio: AB)
Conditions: zebra fish larvae, 0.5% DSS, 5 hours treatment; Chemical formula 1 0.3 μM and 1 μM; FIG. 5
Method: As a zebra fish animal model of inflammatory bowel disease, wild-type zebra fish (Danio rerio: AB) was used, which was kept in an exclusive breeding facility at conditions including light/dark cycle of 14 hours/10 hours and temperature of 28° C. All the animal experiments were carried out according to the protocol of Ethics Committee for Animal Expectation, Healinno-LS (Registration No.: AEC-20210720-0001), and all the materials were sterilized first before they are used for experiment.
According to a treatment with 0.5% DSS (dextran sulfate sodium, M.W. 36,000-50,000, #160110, MP), which induces “ulcerative colitis” as inflammatory bowel disease by creating a damage in colonic epithelial cells, a zebra fish was induced to have inflammatory bowel disease. Then, by threating the zebra fish with the compound represented by Chemical formula 1 of the present invention at different concentrations (0.3 μM and 1 μM), inhibitory activity on inflammatory bowel disease was examined. […]
The zebra fish larvae which have been treated with the compound represented by Chemical formula 1 of the present invention were then added with TRIzol reagent (300 μl), and then homogenized by using a tissue homogenizer (G20, GINKO). […] Purity and concentration were measured by using a microplate reader (FLUOstar omega, BMG Labtech), and the extracted total RNA was kept at −80° C. […]

Structure (SMILES)	expression amount of IL-1β compared to DSS model group
COC(=O)C[C@H](OC(=O)/C=C/c1ccc(O)c(O)c1)c1ccc(O)c(O)c1 [Compound 1, 3-[3,4-dihydroxyphenyl]acrylic acid 1-[3,4-dihydroxyphenyl]-2-methoxycarbonylethyl ester]	statistically significantly lower
Nc1ccc(O)c(C(=O)O)c1 [Compound 5-ASA, 5-aminosalicylic acid, reference compound]	statistically significantly lower
